Results as given in publication PMC8173610 (Biochemistry, 2021).
pIC50: −log10 of the molar value.

Molecular target: microtubule-associated protein tau (Homo sapiens, UniProt P10636)
Assay type: biochemical

microtubule-associated protein tau, sequence (P10636 1-441 isoform P10636-8): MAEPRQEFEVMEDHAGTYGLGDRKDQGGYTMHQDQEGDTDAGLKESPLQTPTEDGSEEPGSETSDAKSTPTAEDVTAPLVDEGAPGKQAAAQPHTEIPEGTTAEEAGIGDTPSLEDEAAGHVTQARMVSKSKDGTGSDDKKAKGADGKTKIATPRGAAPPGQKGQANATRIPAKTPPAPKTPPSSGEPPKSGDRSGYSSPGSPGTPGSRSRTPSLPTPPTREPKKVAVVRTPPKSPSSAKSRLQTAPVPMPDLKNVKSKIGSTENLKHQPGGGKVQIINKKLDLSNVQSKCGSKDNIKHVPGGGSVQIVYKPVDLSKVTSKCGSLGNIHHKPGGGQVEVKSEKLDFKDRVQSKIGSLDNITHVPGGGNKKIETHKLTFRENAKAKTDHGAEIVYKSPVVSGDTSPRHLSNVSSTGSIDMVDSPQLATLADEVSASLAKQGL

- pIC50: 4.46
Compound: CCCCCCCCCc1cc2cc(O)c(C)c(O)c2cn1 [ANTC-15, 7-methyl-3-nonylisoquinoline-6,8-diol]
